Here are results for eight compounds from patent US7888380B2, “1,2,4-Triazolylaminoaryl (heteroaryl) sulfonamide derivatives” (Janssen Pharmaceutica, N.V., priority 2004, dated 2011).

One data set deals with HCT-116 colon carcinoma. Nature of the data set: Inhibition of cell proliferation (14C-thymidine incorporation), HCT116. The settings on record: Homo sapiens, HCT-116. The class given is cell-based, human. On the procedure: (§1) The ability of a test compound to inhibit the proliferation of cell growth was determined by measuring incorporation of ^14C-labelled thymidine into newly synthesized DNA within the cells. This method was used on cell lines derived from carcinomas originating from several tissues such as HeLa cervical adenocarcinoma (American Type Culture Collection (ATCC), Virginia, Cat. #CCL-2), A375 malignant melanoma (ATCC CRL-1619), and HCT-116 colon carcinoma (CCL-247). In this way the effect of a compound on cell growth of cells with many different phenotypes can be determined. Cells were trypsinized and counted and 3000-8000 cells were added to each well of a 96-well CytoStar tissue culture treated scintillating microplate (Amersham #RPNQ0160) in complete medium in a volume of 100 μl. Cells were incubated for 24 hours in complete medium at 37° C. in an atmosphere containing 5% CO2.
(§2) Next, 1 μl of test compound in 100% DMSO was added to the wells of the plate. DMSO only was added to control wells. Cells were incubated for 24 more hours in complete medium at 37° C. in an atmosphere containing 5% CO2. Methyl ^14C-thymidine 56 mCi/mmol (NEN #NEC568 or Amersham #CFA532) was diluted in complete medium and 0.2 uCi/well was added to each well of the CytoStar plate in a volume of 20 ul. The plate was incubated for 24 hours at 37° C. plus 5% CO2 in drug plus ^14C-thymidine. The contents of the plate were discarded into a ^14C radioactive waste container by inverting the plate and the plate was washed twice with 200 μl PBS.
(§3) 200 μl of PBS was added to each well. The top of the plate was sealed with a transparent plate sealer and a white plate backing sealer (Packard #6005199) was applied to the bottom of the plate. The degree of methyl ^14C-thymidine incorporation was quantified on a Packard Top Count.

In another data set the test system is A375 malignant melanoma. The experiment in a line: Inhibition of cell proliferation (14C-thymidine incorporation), A375. Format: cell-based, human. The settings on record: Homo sapiens, A-375. On the procedure: as §1, §2, §3
The target of a further data set is CDK2:Cyclin-E (Homo sapiens, UniProt P24941). Nature of the data set: CDK2 Screening Assay (33P-ATP FlashPlate). Conditions: 10 μM ATP; >10 or >100 = less than 50% inhibition at highest concentration tested. Format: biochemical. On the procedure:
A kinase reaction mixture was prepared containing 50 mM Tris-HCl pH=8, 10 mM MgCl2, 0.1 mM Na3PO4, 1 mM DTT, 10 μM ATP, 0.025 μM biotinylated histone-H1 peptide substrate and 0.2 μCuries per well ^33P-γ-ATP (2000-3000 Ci/mmol). 70 μL of the kinase reaction mixture was dispensed into the well of a streptavidin coated FlashPlate™ (Cat. # SMP103, NEN, Boston, Mass.). Then 1 μL of test compound stock in 100% DMSO was added to the wells resulting in a final concentration of 1% DMSO in the reaction with a 100 μl final reaction volume. Next, CDK2:Cyclin-E protein was diluted in 50 mM Tris-HCl pH=8.0, 0.1% BSA at a concentration of 1 ng per μL and 30 μL (30 ng enzyme per test well) was added to each well to initiate the reaction. The reaction was incubated for one hour at 30° C. At the end of the 1 h incubation, the reaction was terminated by aspirating the mixture from the plate and washing the wells twice with PBS containing 100 mM EDTA. The histone-H1 biotinylated peptide substrate became immobilized on the Flashplate™ and the incorporation of ^33P-γ-ATP was measured by reading the plate on a scintillation counter. Inhibition of the enzymatic activity of CDK2 was measured by observing a reduced amount of ^33P-γ-ATP incorporated into the immobilized peptide. […]

Data set [1] can be described thus: Standard Rat Pharmacokinetics (PK). The settings on record: for bioavailability: plasma, rat, Dose(IV)*AUC(oral)/Dose(oral)*AUC(IV); for Cmax: rat plasma. The class given is in vivo. On the procedure:
The conversion of prodrug to active form was evaluated using a standard rat PK protocol. The following procedure may be followed.
Rats were dosed intravenously (IV) at the level of 1.5-3 mg/kg and by oral gavage (PO) at the level of 10-30 mg/kg with prodrug candidate. For each study, four rats were used for IV dosing and four rats were used for PO dosing. Prodrug was typically formulated for IV dosing as a solution in 10% W/V solutol in 5% dextrose in sterile water vehicle (D5W). Prodrug was typically formulated for oral dosing as a uniform suspension in 0.5% methylcellulose vehicle. Blood samples (0.5 mL) were collected into heparinized tubes post dose via orbital sinus puncture. For IV dosing, blood samples were collected at 5, 15 and 30 mins, 1, 2, 4, 6, 8, and 24 hrs after the dosing. For PO dosing, blood samples were collected at 30 mins, 1, 2, 4, 6, 8 and 24 hrs. Blood samples were centrifuged for cell removal, and precisely 200 μL of plasma supernatant was then transferred to a clean vial, placed on dry ice, and subsequently stored in a −70° C. freezer prior to analysis. Results were calculated by WinNonlin Pro version 3.1. Plasma levels were determined and the oral and intravenous area under the concentration vs. time curve (AUC) were compared to determine the % bioavailability (% F) by the following formula: Dose(IV)*AUC(oral)/Dose (oral)*AUC(IV).

The mark [2] stands for this setting: IV 2 mg/kg of prodrug, read-out: Prodrug Cmax (μM) IV.
The mark [3] stands for this setting: PO 10 mg/kg of prodrug, read-out: Prodrug Cmax (μM) PO.
The mark [4] stands for this setting: IV 3 mg/kg of prodrug, read-out: Prodrug Cmax (μM) IV.
Where [5] appears, read: PO 30 mg/kg of prodrug, read-out: Prodrug Cmax (μM) PO.

Read-outs that look alike come from different tables or passages of the source. A value given as a limit tells only on which side of the number the result lay.

Turning to `C[C@H](N)C(=O)N[C@@H](C)C(=O)NS(=O)(=O)c1ccc(Nc2nc(N)n(C(=O)c3c(F)cccc3F)n2)cc1.O=C(O)C(F)(F)F.O=C(O)C(F)(F)F.O=C(O)C(F)(F)F` [Compound 15, (S)-2-amino-N—((S)-2-{4-[5-amino-1-(2,6-difluoro-benzoyl)-1H-[1,2,4]triazol-3-ylamino]-benzenesulfonylamino}-1-methyl-2-oxo-ethyl)-propionamide 3 TFA salt], the results for the IC50 in the data set with HCT-116 colon carcinoma, in the data set on A375 malignant melanoma and against CDK2:Cyclin-E were 20.8 µM, 12.1 µM and 0.1 µM, respectively. Also, the bioavailability in data set [1] (IV/PO 2/10 mg/kg) came to 0%. Also, the Cmax in data set [1] (setting [2]) amounted to 31.8 µM; in data set [1] (setting [3]), 0.167 µM.
Consider `CCCC(=O)NS(=O)(=O)c1ccc(Nc2nc(N)n(C(=O)c3c(F)cccc3F)n2)cc1` [Compound 19, 4-[5-amino-1-(2,6-difluoro-benzoyl)-1H-[1,2,4]triazol-3-ylamino]-N-butyryl-benzenesulfonamide], for which the half-inhibitory concentration (IC50) in the data set on HCT-116 colon carcinoma worked out at 11.6 µM; with A375 malignant melanoma, 24.1 µM; against CDK2:Cyclin-E, 0.05 µM. The compound also yielded a bioavailability in data set [1] (IV/PO 3/30 mg/kg) of 0.41%. Besides, the values for the maximum concentration (Cmax) in data set [1] (setting [4]) and in data set [1] (setting [5]) were 127 µM and 0.27 µM, respectively.
Regarding `CCCCC(=O)NS(=O)(=O)c1ccc(Nc2nc(N)n(C(=O)c3c(F)cccc3F)n2)cc1` [Compound 18, 4-[5-amino-1-(2,6-difluoro-benzoyl)-1H-[1,2,4]triazol-3-ylamino]-N-pentanoyl-benzenesulfonamide], the IC50 was greater than 100 µM with HCT-116 colon carcinoma, greater than 100 µM with A375 malignant melanoma and 0.47 µM against CDK2:Cyclin-E. Besides, the bioavailability in data set [1] (IV/PO 3/30 mg/kg) stood at 0.4%. The Cmax in data set [1] (setting [4]) turned out to be 134 µM; in data set [1] (setting [5]) it was 0.41 µM.
As for `Nc1nc(Nc2ccc(S(=O)(=O)NC(=O)[C@@H](N)CC(=O)O)cc2)nn1C(=O)c1c(F)cccc1F` [Compound 17, (S)-3-amino-4-{4-[5-amino-1-(2,6-difluoro-benzoyl)-1H-[1,2,4]triazol-3-ylamino]-benzenesulfonylamino}-4-oxo-butyric acid], the IC50 with HCT-116 colon carcinoma is 28.4 µM; in the data set with A375 malignant melanoma, greater than 100 µM; against CDK2:Cyclin-E it was 0.09 µM. The compound further returned a bioavailability in data set [1] (IV/PO 2/10 mg/kg) of 0%. Besides, the figures for the Cmax in data set [1] (setting [2]) and in data set [1] (setting [3]) were 18.3 µM and 0.1 µM, respectively.
With `Nc1nc(Nc2ccc(S(=O)(=O)NC(=O)CCCC(=O)O)cc2)nn1C(=O)c1c(F)cccc1F` [Compound 11, 5-{4-[5-amino-1-(2,6-difluoro-benzoyl)-1H-[1,2,4]triazol-3-ylamino]-benzenesulfonylamino}-5-oxo-pentanoic acid], the 50% inhibitory concentration (IC50) with HCT-116 colon carcinoma is greater than 100 µM; in the data set with A375 malignant melanoma it was greater than 100 µM; against CDK2:Cyclin-E, 1.53 µM. The compound also came in with a bioavailability in data set [1] (IV/PO 2/10 mg/kg) of 0%. The Cmax turned out to be 81.8 µM in data set [1] (setting [2]) and 0.346 µM in data set [1] (setting [3]).
Turning to `Nc1nc(Nc2ccc(S(=O)(=O)NC(=O)[C@@H]3CCCN3)cc2)nn1C(=O)c1c(F)cccc1F` [Compound 16, 4-[5-amino-1-(2,6-difluoro-benzoyl)-1H-[1,2,4]triazol-3-ylamino]-N—((S)-pyrrolidine-2-carbonyl)-benzenesulfonamide], the values for the IC50 in the data set on HCT-116 colon carcinoma, with A375 malignant melanoma and against CDK2:Cyclin-E were 3.94 µM, 26.8 µM and 0.03 µM, respectively. The same compound returned a bioavailability in data set [1] (IV/PO 2/10 mg/kg) of 0%. Also, the Cmax in data set [1] (setting [2]) was 1.8 µM.
For the compound `COCCOCC(=O)NS(=O)(=O)c1ccc(Nc2nc(N)n(C(=O)c3c(F)cccc3F)n2)cc1` [Compound 3, 4-[5-amino-1-(2,6-difluoro-benzoyl)-1H-[1,2,4]triazol-3-ylamino]-N-[2-(2-methoxy-ethoxy)-acetyl]-benzenesulfonamide], the half-inhibitory concentration (IC50) in the data set with HCT-116 colon carcinoma was greater than 10 µM; in the data set with A375 malignant melanoma it was greater than 100 µM; against CDK2:Cyclin-E it was 0.25 µM. The same compound returned a bioavailability in data set [1] (IV/PO 3/30 mg/kg) of 2%. In addition, the Cmax in data set [1] (setting [4]) worked out at 42.9 µM; in data set [1] (setting [5]) it was 0.32 µM.
As to `COCCOCCOCC(=O)Nc1nc(Nc2ccc(S(N)(=O)=O)cc2)nn1C(=O)c1c(F)cccc1F` [Compound 10, N-[2-(2,6-difluoro-benzoyl)-5-(4-sulfamoyl-phenylamino)-2H-[1,2,4]triazol-3-yl]-2-[2-(2-methoxy-ethoxy)-ethoxy]-acetamide], the IC50 in the data set on HCT-116 colon carcinoma was greater than 100 µM; with A375 malignant melanoma it was greater than 100 µM; against CDK2:Cyclin-E it was 0.3 µM. In addition, the bioavailability in data set [1] (IV/PO 2/10 mg/kg) was 0%. For the same compound, the highest concentration (Cmax) in data set [1] (setting [2]) was found to be 67.3 µM.
